Results: patent US9040713B2, “Methods of managing blood sugar levels and compositions related thereto” (EMORY UNIVERSITY, priority 2010, dated 2015)

Key:
IGF-1R = IGF-1R phosphorylation in cells (immunoblotting); type: cell-based
Protocol: (§1) (A) DDN and CSN activate IR and its downstream signaling in CHO-IR cells. […] The cell lysates were analyzed by immunoblotting with anti-phospho-IR antibodies, or immunoprecipitated by PY20 and analyzed using anti-IR and anti-IRS-1, respectively. (B) DDN and CSN induce IR phosphorylation in a dose-dependent manner. CHO-IR cells were treated with the small compounds at different concentrations for 15 min, and the IR phosphorylation was monitored by immunoprecipitation and immunoblotting. (C) DDN, CSN induce IR phosphorylation in a time-dependent manner. […] (D) DDN and CSN induce IR phosphorylation and its downstream signaling in a dose-dependent manner. […] (E) DDN and CSN cannot induce IGF-1R or EGFR phosphorylation. CHO-IGF-1R or HEK293 cells were treated with EGF (100 nM), IGF-1 (100 nM), DDN (10 μM) or CSN (10 μM) for 15 min. The cell lysates were analyzed by immunoblotting with anti-pIGF-1R and anti-pEGFR.
(§2) (A) Chemical structure of 4524-E7. (B) Effect of 4524-E7 and other 1,4-naphthoquinone derivatives on IR phosphorylation in CHO-IR cells. CHO-IR cells were cultured in 96-well plates and treated with 5 μM compounds for 15 min at 37 C. Cells were lysed, and IR phosphorylations were tested by ELISA. The IR phosphorylation activities of the tested compounds were expressed as a percentage of the vehicle. (C) 4524-E7 and 1,4-naphthoquinone derivates activate IR and its downstream signaling in CHO-IR cells. […] The cell lysates were analyzed by immunoblotting with various indicated antibodies. The phosphorylated IR was immunoprecipitated using PY20 and analyzed by immunoblotting with anti-IR13 antibody. […] The phosphorylation of each receptor was determined by Western blot using specific antibodies as indicated. (E) 4524-E7 activates IR through its ICD. Upper panel: Diagram of chimaeric receptors. Lower panel: His-tagged wild-type IR, IGFR-IR, IR-IGFR, and IR-EGFR constructs were transfected into CHO cells followed vehicle or 5 μM 4524-E7 treatment for 30 min. Then the cells were lysated and the transfected receptor fused to His tag were pulled down with Ni+ beads, followed by western blot against anti-p-Tyr and anti-His. The cell lysates were tested with anti-p-Akt and anti-Akt.
(§3) A cell-based ELISA assay was developed with an IR stably transfected Chinese Hamster Ovary (CHO-IR) cell line. The cells were seeded in a 96-well plate and treated with 10 μM (15 min) compounds. The cell lysates were subjected to the sandwich ELISA using immobilized anti-phosphotyrosine antibody and anti-IR antibody. […] Among the positive hits, 1,4-naphthoquinone compounds were identified that can selectively activate IR but not IGF-1R (FIG. 1A). […] Total IR tyrosine phosphorylation was further confirmed by immunoprecipitation using anti-phosphotyrosine (PY20) antibody (FIG. 2A, 3rd panel). […]

EGFR = EGFR phosphorylation in cells (immunoblotting); type: cell-based
Protocol: as §1, §2, §3

p85α−/− MEF cells = assay: [3H] 2-deoxyglucose transport in p85α knockout MEF cells; type: cell-based, mouse; conditions: insulin 100 nM 15 min or compound 5 μM 30 min
Protocol: Insulin signaling in the cell lysates were tested by immunoblotting. (B) DDN stimulates glucose uptake. […] [3H]2-deoxyglucose was then added, and the cells were further incubated for 10 min. [3H]2-deoxyglucose uptake by adipocytes was measured by scintillation counting (*: P<0.05 **: P<0.01 vs control, Student's t-test, n=3). (C) DDN synergizes insulin's signaling. […] Cell lysates were then prepared for Western blot using specific antibodies as indicated. […] 3H-2-deoxyglucose was then added, and the cells were further incubated for 10 min. 3H-2-deoxyglucose uptake by adipocytes was measured by scintillation counting (*: P<0.05; **: P<0.01, Student's t-test, n=3). (E) IR is necessary for DDN to induce ERK phosphorylation. […] Cell lysates were analyzed by Western blot. […] The uptake of 3H-2-deoxyglucose was monitored by liquid scintillation counting (*: P<0.05; **: P<0.01 vs control, Student's t-test, n=3).
(A) 4524-E7 activates IR phosphorylation and its downstream signaling in 3T3-L1 adipocytes. […] The amount of [3H]2-deoxyglucose taken by adipocytes was measured. […] Results were normalized to DMSO-treated cells and expressed as mean±S.E.M. (*: P<0.05; **:P<0.01, Student's t-test, n=3). […] Cells lysates were collected and analyzed by Western blot. […] 2-deoxyglucose was monitored by liquid scintillation counter. Results were expressed as mean±S.E.M. (*: P<0.05; **:P<0.01, Student's t-test, n=3). […]

[1] = differentiated 3T3-L1 adipocytes

Molecule | IGF-1R activation (IGF-1R; CHO-IGF-1R cells, 10 μM, 15 min) | EGFR activation (EGFR; HEK293 cells, 10 μM, 15 min) | [3H]-2-deoxyglucose uptake (p85α−/− MEF cells) | IGF-1R activation (IGF-1R; IGF-1R-transfected HEK293 cells, 5 μM) | IGF-1R activation (IGF-1R; [1]) | EGFR activation (EGFR; EGFR-transfected HEK293 cells, 5 μM) | EGFR activation (EGFR; [1])
CC(=O)Oc1ccc(OC(C)=O)c2c1C(=O)C(Cl)=C(Cl)C2=O [DDN, 5,8-diacetyloxy-2,3-dichloro-1,4-naphthoquinone] | Neither IGF-1R nor EGFR was activated | Neither IGF-1R nor EGFR was activated |  |  |  |  | 
O=C1c2ccccc2C(=O)C2SC(Nc3ccc(Cl)cc3)=NC12 (centres unmarked) [4524-E7, 2-((4-chlorophenyl)amino)naphtho[2,3-d]thiazole-4,9(3aH,9aH)-dione] |  |  | neither insulin nor 4524-E7 was able to induce glucose uptake | not any other RTKs | neither IGF-1R nor EGFR was activated | not any other RTKs | neither IGF-1R nor EGFR was activated
insulin: insulin, used as positive control |  |  | neither insulin nor 4524-E7 was able to induce glucose uptake |  |  |  | 
